# Read-outs that look alike come from different tables or passages of the source.
# Legend:
# FIP1L1-PDGFRα wild type = molecular target: T1, FIP1L1-PDGFRα wild type (Homo sapiens, UniProt P16234); experiment: Bone marrow transplant model of FIP1L1-PDGFRα-induced myeloproliferative disease; assay type: in vivo, Balb/c mice; settings: at time of death or trial endpoint
# T1 construct: FIP1L1 (N-terminal part of FIP1-like 1, Q6UN15); expressed in transfected cells; host or cells: Bone marrow cells retrovirally transduced with MSCV-FIP1L1-PDGFRα-ires-EGFP and transplanted into Balb/c mice; the other entry of the earlier key: FIP1L1 (Q6UN15, Pre-mRNA 3'-end-processing factor FIP1)
# Procedure: (§1) The retroviral construct MSCV-FIP1L1-PDGFRα-ires-EGFP and the corresponding T674I mutant were described previously (Cools et al., New England Journal of Medicine Vol. 348 No. 13, p 1201-1214 2003). The N659D mutation was introduced by PCR (polymerase chain reaction).
# (§2) Balb/c mice were purchased from Taconic (Germantown, N.Y.). Bone marrow transplant assays (injecting 1×10^6 cells per recipient mouse) and drug treatment of the mice was performed as described previously (Schwaller et al., 1998; Kelly et al.; Weisberg et al., 2002). Imatinib (stored as powder at 4° C.) was resuspended in a 0.5% methylcellulose (MC) solution in water prior to use. PKC412 (6% w/w in Gelucire® 44/14 (GC) (Gattefosse,France)) was stored at 4° C. as a waxy-solid formulation. Prior to administration, the GC/PKC412 waxy solid mixture was melted in a 44° C. water bath and diluted with sterilized deionized water. The animals were weighed at regular basis to ensure that a consistent dose (150 mg/kg/day for imatinib and 100 mg/kg/day for PKC412) of drug was administered. Dosing was performed every 12 hr for imatinib and every 24 hr for PKC412 by oral gavage of a maximum volume of 150 μl per animal using 22 gauge gavage needles (Hornbecks). Placebo animals received the same volume of a MC or GC solution. Any animals with splenomegaly (spleen boundary detectable at the dorsal medline) or that were moribund were sacrificed and analysed for signs of hematological disease. Peripheral blood was collected from the retroorbital cavity using a heparinized glass capillary. Blood smears were stained with Wright and Giemsa. Manual and automated (ADIVA 120 Hematology system, Bayer) total and differential blood cell counts were performed. Histopathologic exam of relevant organs (spleen, liver, heart, lungs, Intestine, hindlimb bones, and kidneys) and preparation of single-cell suspensions from spleen and bone marrow for flow cytometry was performed as described. In comparing the survival time of the mice, all times are measured from the day of BMT (bone marrow transplant), and the log rank test is used to attach a significance level to the difference in the survival curve.
# FIP1L1-PDGFRαT674I = assay type: in vivo, Balb/c mice; settings: at time of death or trial endpoint
# Procedure: as §1, §2
# [1] = trial 1, FIP1L1-PDGFRα wild type, imatinib 150 mg/kg/day oral gavage
# [2] = trial 2, FIP1L1-PDGFRα, imatinib 150 mg/kg/day, PKC412 100 mg/kg/day, oral gavage
# [3] = trial 1, FIP1L1-PDGFRαT674I, imatinib 150 mg/kg/day oral gavage
# [4] = trial 2, FIP1L1-PDGFRα T674I, imatinib 150 mg/kg/day, PKC412 100 mg/kg/day, oral gavage
# T1 sequence (P16234 593-1089 limits assumed): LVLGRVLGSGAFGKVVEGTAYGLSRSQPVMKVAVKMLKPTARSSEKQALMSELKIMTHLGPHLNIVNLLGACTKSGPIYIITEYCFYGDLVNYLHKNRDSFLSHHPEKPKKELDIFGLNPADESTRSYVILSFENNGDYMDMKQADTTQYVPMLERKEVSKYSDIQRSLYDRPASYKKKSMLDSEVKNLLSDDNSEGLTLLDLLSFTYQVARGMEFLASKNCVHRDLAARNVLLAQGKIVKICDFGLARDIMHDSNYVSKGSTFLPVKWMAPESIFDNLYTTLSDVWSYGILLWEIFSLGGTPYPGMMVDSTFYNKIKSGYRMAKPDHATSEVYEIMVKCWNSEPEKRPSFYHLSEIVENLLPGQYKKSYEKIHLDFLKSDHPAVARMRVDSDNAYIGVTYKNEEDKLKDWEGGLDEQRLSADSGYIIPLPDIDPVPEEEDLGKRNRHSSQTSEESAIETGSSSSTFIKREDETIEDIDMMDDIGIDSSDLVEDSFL
smiles,measurement,setting,value
Cc1ccc(NC(=O)c2ccc(CN3CCN(C)CC3)cc2)cc1Nc1nccc(-c2cccnc2)n1 [imatinib],"WBC, mean",FIP1L1-PDGFRα wild type; [1],6e+06 mL⁻¹
same,"WBC, median",FIP1L1-PDGFRα wild type; [1],5.2e+06 mL⁻¹
same,"WBC, range",FIP1L1-PDGFRα wild type; [1],4.6-9.4 ×10^6/ml
same,"WBC, mean",FIP1L1-PDGFRα wild type; [2],4.8e+06 mL⁻¹
same,"WBC, median",FIP1L1-PDGFRα wild type; [2],4.8e+06 mL⁻¹
same,"WBC, range",FIP1L1-PDGFRα wild type; [2],4.4-5.3 ×10^6/ml
same,"WBC, mean",FIP1L1-PDGFRαT674I; [3],4.965e+08 mL⁻¹
same,"WBC, median",FIP1L1-PDGFRαT674I; [3],5.077e+08 mL⁻¹
same,"WBC, range",FIP1L1-PDGFRαT674I; [3],434.6-535.8 ×10^6/ml
same,"WBC, mean",FIP1L1-PDGFRαT674I; [4],5.482e+08 mL⁻¹
same,"WBC, median",FIP1L1-PDGFRαT674I; [4],5.915e+08 mL⁻¹
same,"WBC, range",FIP1L1-PDGFRαT674I; [4],364.9-657.6 ×10^6/ml
